Assay results: ChEMBL document CHEMBL5113546, “Novel SMARCA Degraders for Treating Cancer” (ACS Med Chem Lett, 2022)

Target: SWI/SNF-related matrix-associated actin-dependent regulator of chromatin subfamily A member 2 (Homo sapiens, UniProt P51531)
Test: Induction of SMARCA2 degradation in human A549 cells measured after 24 hrs by MSD assay
Type: cell-based

Sequence of SWI/SNF-related matrix-associated actin-dependent regulator of chromatin subfamily A member 2 (P51531 whole entry): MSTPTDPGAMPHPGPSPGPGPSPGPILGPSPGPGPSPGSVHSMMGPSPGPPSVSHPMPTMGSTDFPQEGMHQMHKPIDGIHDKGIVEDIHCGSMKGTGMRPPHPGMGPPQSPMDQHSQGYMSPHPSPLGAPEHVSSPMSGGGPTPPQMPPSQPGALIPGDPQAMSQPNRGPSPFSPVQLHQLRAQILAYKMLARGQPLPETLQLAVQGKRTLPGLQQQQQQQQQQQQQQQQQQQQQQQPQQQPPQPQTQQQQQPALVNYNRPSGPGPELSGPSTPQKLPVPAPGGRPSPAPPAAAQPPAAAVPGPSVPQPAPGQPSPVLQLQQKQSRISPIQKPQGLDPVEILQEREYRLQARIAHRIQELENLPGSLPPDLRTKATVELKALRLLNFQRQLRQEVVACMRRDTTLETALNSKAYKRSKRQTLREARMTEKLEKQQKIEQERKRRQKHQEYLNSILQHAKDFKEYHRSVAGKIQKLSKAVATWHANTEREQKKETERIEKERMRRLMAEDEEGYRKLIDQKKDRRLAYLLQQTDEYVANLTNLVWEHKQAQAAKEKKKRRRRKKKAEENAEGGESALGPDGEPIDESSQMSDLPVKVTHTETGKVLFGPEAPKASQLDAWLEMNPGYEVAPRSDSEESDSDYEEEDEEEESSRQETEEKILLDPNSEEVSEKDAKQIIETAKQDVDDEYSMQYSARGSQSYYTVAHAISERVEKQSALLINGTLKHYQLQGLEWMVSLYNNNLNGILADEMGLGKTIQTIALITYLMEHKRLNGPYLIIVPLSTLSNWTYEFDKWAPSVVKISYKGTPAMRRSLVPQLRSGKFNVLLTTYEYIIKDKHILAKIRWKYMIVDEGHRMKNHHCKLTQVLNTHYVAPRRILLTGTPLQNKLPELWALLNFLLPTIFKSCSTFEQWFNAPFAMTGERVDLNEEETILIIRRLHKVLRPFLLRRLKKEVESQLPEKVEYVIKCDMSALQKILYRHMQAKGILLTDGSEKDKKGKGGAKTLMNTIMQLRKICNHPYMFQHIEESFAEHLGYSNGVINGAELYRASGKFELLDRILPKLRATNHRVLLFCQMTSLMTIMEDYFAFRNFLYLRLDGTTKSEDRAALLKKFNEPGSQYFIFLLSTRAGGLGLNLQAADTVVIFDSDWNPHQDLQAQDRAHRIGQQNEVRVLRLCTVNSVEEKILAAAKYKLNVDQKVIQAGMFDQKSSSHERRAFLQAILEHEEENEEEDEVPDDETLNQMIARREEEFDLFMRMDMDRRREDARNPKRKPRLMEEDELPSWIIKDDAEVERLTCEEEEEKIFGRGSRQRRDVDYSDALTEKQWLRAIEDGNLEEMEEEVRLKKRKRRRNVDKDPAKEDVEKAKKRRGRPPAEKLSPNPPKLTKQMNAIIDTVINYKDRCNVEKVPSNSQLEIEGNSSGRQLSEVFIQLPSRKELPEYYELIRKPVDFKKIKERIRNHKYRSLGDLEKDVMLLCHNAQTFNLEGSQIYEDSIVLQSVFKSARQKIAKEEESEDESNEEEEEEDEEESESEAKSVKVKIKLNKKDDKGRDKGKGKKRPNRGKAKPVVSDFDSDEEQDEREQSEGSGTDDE

Structure (SMILES)	DC50 [nM]
Cc1ncsc1-c1ccc(CNC(=O)[C@@H]2C[C@@H](O)CN2C(=O)[C@@H](NC(=O)[C@H]2CC3(C2)C[C@H](N2CCN(c4cnc(N5C6CCC5CN(c5cc(-c7ccccc7O)nnc5N)C6)nc4)CC2)C3)C(C)(C)C)cc1 (stereo partly specified)	< 100
Cc1ncsc1-c1ccc([C@H](C)NC(=O)[C@@H]2C[C@@H](O)CN2C(=O)[C@@H](NC(=O)[C@H]2CC3(C2)C[C@H](N2CCC(c4cnc(N5C6CCC5CN(c5cc(-c7ccccc7O)nnc5N)C6)nc4)CC2)C3)C(C)(C)C)cc1 (stereo partly specified)	< 100
Cc1ncsc1-c1ccc(C2(NC(=O)[C@@H]3C[C@@H](O)CN3C(=O)[C@@H](NC(=O)[C@H]3CC4(C3)C[C@H](N3CCC(c5cnc(N6C7CCC6CN(c6cc(-c8ccccc8O)nnc6N)C7)nc5)CC3)C4)C(C)(C)C)CC2)cc1 (stereo partly specified)	< 100
Cc1ncsc1-c1ccc(CNC(=O)[C@@H]2C[C@@H](O)CN2C(=O)[C@@H](NC(=O)[C@H]2CC3(CC[C@H](N4CCC(c5cnc(N6C7CCC6CN(c6cc(-c8ccccc8O)nnc6N)C7)nc5)CC4)CC3)C2)C(C)(C)C)cc1 (stereo partly specified)	< 100
Cc1ncsc1-c1ccc(CNC(=O)[C@@H]2C[C@@H](O)CN2C(=O)C(c2cc(OCCN3CCC(c4cnc(N5C6CCC5CN(c5cc(-c7ccccc7O)nnc5N)C6)nc4)CC3)no2)C(C)C)cc1 (stereo partly specified)	< 100
Cc1ncsc1-c1ccc(CNC(=O)[C@@H]2C[C@@H](O)CN2C(=O)C(c2cc(OCCCCN3CCC(c4cnc(N5C6CCC5CN(c5cc(-c7ccccc7O)nnc5N)C6)nc4)CC3)no2)C(C)C)cc1 (stereo partly specified)	< 100
